Type in all cases: cell-based, mouse
For test [1], the system named is ES-TS cell clusters. In words: Cavitation of ES-TS cell clusters (yield of cavitated blastoids). The settings on record: for yield of cavitated blastoids / cavitation: FIG. 4h; for yield of blastoids cavitation: FIG. 4i, added to CHIR99021 3 uM, versus control with CHIR99021 3 uM only. The method, then:
FIG. 4c: […], The yield of cavitated blastoids is described by the percentage of ES-TS cell clusters that were cavitated after 96 hours of culture, thus forming an artificial blastocyst or blastoid. […]
The efficiency of blastoid formation is measured as the percentage of cavitated structures with (1) an external cellular layer expressing the transcription factors CDX2, Eomes and GATA3 and (2) an internal cellular aggregate expressing the transcription factors Oct4 and Sox2 and at least partly Nanog.
The formation of a cavity is assessed by the formation of a volume within the aggregate that is not occupied by cellular nucleus. The formation of a cavity is preferably assessed using the cross-sectional section of a cellular aggregate stained with a nuclear-specific dye (for example DAPI).
• Double layer formation: the formation of an (at least) double layered cell aggregate with an external layer of TS cells and an inner layer of ES cells is evaluated using transgenic cell lines. Specifically, ES cells were transfected with Histone 2B and a Red Fluorescent Protein under the control of a cytomegalovirus promoter and clonally derived. The H2B-RFP ES cells are thus constitutively expressing a red fluorescence within their nucleus which allows for their tracking. • TS cells were derived from a mouse constitutively expressing Green Fluorescent Protein (GFP) under the control of a cytomegalovirus promoter in all cells. The GFP TS cells are thus expressing a green fluorescence in their cytoplasma which allows for their tracking. • The formation of a double-layered aggregate is thus assessed by observing a green outer layer of cells and a red inner layer of cells. The efficiency of engulfment is determined as the percentage of green-colored projection area (representing the TS cell layer) that overlaps with an artificial 3-pixel-wide ring drawn around the red-colored projection area (representing the inner aggregate of ES cells) after 24 hours of culturing the ES-TS cell clusters. The said efficiency of engulfment described in FIG. 4 represents the average value taken from approximately 200 ES-TS cell clusters. • Cavitation: The formation of a cavity is assessed by the formation of a volume within the aggregate that is not occupied by cellular nucleus. The formation of a cavity is preferably assessed using the cross-sectional section of a cellular aggregate stained with a nuclear-specific dye (for example DAPI). […] The expression of cdx2 is assessed as the number of GFP positive cells with a cdx2 positive nucleus per 10 μm microscopic section. The expression of the transcription factors Oct4 and Nanog is assessed by conventional immunocytochemistry in ES-TS aggregates including H2B-RFP expressing ES cells. The expression of Oct4 and Nanog is assessed as the number of H2B-RFP positive cells with an Oct4 or Nanog positive nucleus per 10 μm microscopic section. Pictoral Summary of the Procedure for Blastoid Formation: […]

The subject of test [2] is ES-TS cell clusters. Nature of the test: Efficiency of engulfment during formation of ES-TS cell clusters. Conditions: at higher concentration of Y27632; after 24 hours of culture (FIG. 4a). The method, then:
Mouse TS-cells were seeded at 17 cells/microwell in 150 μL B27N2 medium. After 20 minutes, 1 ml of B27N2 medium was added that included 10% FBS, Y27632 20 μM, 8Br-cAMP (1 mM), 007-AM (1 nM) and CHIR 3 μM, FGF4 15 ng/ml, Tgfb1 5 ng/ml, IGF2, 10 ng/ml, estradiol 10 ng/ml. The cells were placed in an incubator set at 37° Celsius to form the ES-TS cell cluster. • Double layer formation: the formation of an (at least) double layered cell aggregate with an external layer of TS cells and an inner layer of ES cells is evaluated using transgenic cell lines. […] The H2B-RFP ES cells are thus constitutively expressing a red fluorescence within their nucleus which allows for their tracking. • TS cells were derived from a mouse constitutively expressing Green Fluorescent Protein (GFP) under the control of a cytomegalovirus promoter in all cells. The GFP TS cells are thus expressing a green fluorescence in their cytoplasma which allows for their tracking. • The formation of a double-layered aggregate is thus assessed by observing a green outer layer of cells and a red inner layer of cells. […] The said efficiency of engulfment described in FIG. 4 represents the average value taken from approximately 200 ES-TS cell clusters. • Cavitation: The formation of a cavity is assessed by the formation of a volume within the aggregate that is not occupied by cellular nucleus. […]

Test [3] deals with inner cell mass (ICM) of blastoids. Nature of the test: Size of inner cell mass (ICM) in cavitated blastoids, projection area. The settings on record: up to a concentration of 1000 μM (FIG. 4f). The source says:
FIG. 4d: size of inner cell mass (ICM) as a function of the average number of ES-cells seeded per microwell. Size of ICM, measured as the projection area of the ES cell cluster inside the cavitated blastoid, increases with increasing numbers of ES cells seeded per microwell.
The size of the inner cell mass (ICM) depends on the average number of ES-cells seeded, and increases with the number of ES-cells seeded per microwell as described in FIG. 4. The size as defined by its projection area is generally between 1000 and 5000 um^2, preferably between 2000 and 4500 um^2. The size is conveniently expressed by determining the projection area (in um^2) of the ICM through light microscopy.

For test [4], the system named is Cdx2 expression in trophoblast stem cells of ES-TS aggregates. Nature of the test: Cdx2 expression by CDX2 immunostaining. Conditions: CDX2 immunostaining (FIG. 4g). How it is done:
• Double layer formation: the formation of an (at least) double layered cell aggregate with an external layer of TS cells and an inner layer of ES cells is evaluated using transgenic cell lines. Specifically, ES cells were transfected with Histone 2B and a Red Fluorescent Protein under the control of a cytomegalovirus promoter and clonally derived. The H2B-RFP ES cells are thus constitutively expressing a red fluorescence within their nucleus which allows for their tracking. • TS cells were derived from a mouse constitutively expressing Green Fluorescent Protein (GFP) under the control of a cytomegalovirus promoter in all cells. The GFP TS cells are thus expressing a green fluorescence in their cytoplasma which allows for their tracking. • The formation of a double-layered aggregate is thus assessed by observing a green outer layer of cells and a red inner layer of cells. The efficiency of engulfment is determined as the percentage of green-colored projection area (representing the TS cell layer) that overlaps with an artificial 3-pixel-wide ring drawn around the red-colored projection area (representing the inner aggregate of ES cells) after 24 hours of culturing the ES-TS cell clusters. […] The formation of a cavity is preferably assessed using the cross-sectional section of a cellular aggregate stained with a nuclear-specific dye (for example DAPI). […]

`Cc1c[nH]c(-c2cnc(NCCNc3ccc(C#N)cn3)nc2-c2ccc(Cl)cc2Cl)n1` [CHIR99021, 6-{2-[4-(2,4-dichloro-phenyl)-5-(4-methyl-1H-imidazol-2-yl)-pyrimidin-2-ylamino]-ethylamino}-nicotinonitrile]: in the test on ES-TS cell clusters [1] (CHIR99021 at 3 uM), the blastoid yield came out at 10% and the “yield of cavitated blastoids / cavitation” value is given as “increases the yield of cavitated blastoids”. The molecule also displayed a blastoid yield in the test on ES-TS cell clusters [1] (CHIR99021 at 20 uM) of about 30%. Also, the “yield of cavitated blastoids” value in the test on ES-TS cell clusters [1] (increasing concentrations (FIG. 4e)) is “positively correlate with an increase in the yield of cavitated blastoids”.

For `C[C@@H](N)[C@H]1CC[C@H](C(=O)Nc2ccncc2)CC1` [Y27632, (1R,4r)-4-((R)-1-aminoethyl)-N-(pyridin-4-yl)cyclohexanecarboxamide], the efficiency of engulfment entry in the test on ES-TS cell clusters [2] was “increase in efficiency of engulfment”.

As for `Nc1ncnc2c1nc(Br)n2[C@@H]1O[C@@H]2COP(=O)(O)O[C@H]2[C@H]1O` [8Br-cAMP], the yield of cavitation result in the test on ES-TS cell clusters [1] (8Br-cAMP 0.1-10 mM, for example 1 mM) is “increases the yield of cavitation”. The “yield of blastoids cavitation” value with ES-TS cell clusters [1] is reported as “increase the yield of blastoids cavitation”. For the same molecule, in test [3], the “size of ICM” value is on record as “positively correlates with an increase in the size of ICM”.

With “IGF2: a protein and a growth factor known in the art to activate the Akt pathway”, in test [4], the Cdx2 expression result is “positively correlates with an increase of Cdx2 expression”.

On to `Oc1nc(-c2ccc(C(F)(F)F)cc2)nc2c1CSCC2` [XAV939], for which the “yield of cavitated blastoids / cavitation” value with ES-TS cell clusters [1] (CHIR99021 at 3 uM) is listed as “prevents the cavitation of blastoids”.

As to `CC(C)[C@H]1C(=O)N[C@H](CO)Cc2c[nH]c3cccc(c23)N1C` [Indolactam V], the “yield of blastoids cavitation” value with ES-TS cell clusters [1] is listed as “increase the yield of blastoids cavitation”. Moreover, the yield of cavitation result with ES-TS cell clusters [1] (Indolactam V 0.1-10 uM, for example 1 uM) is recorded as “increases the yield of cavitation”.

The values above are taken from patent US9822336B2, “Blastoid, cell line based artificial blastocyst” (Universiteit Maastricht, priority 2013, dated 2017).
